Usually IC50 stands for the concentration needed to halve the response being measured. One may read the Ki as a dissociation constant, usually derived from enzyme kinetics or from competition with a known ligand. Broadly, the inhibition is the change of the read-out against control, counted positive when it falls. Higher therefore signals strong suppression.

Like-named read-outs stand apart in the source and are kept apart here.

In one assay the target is T1, Human M3 receptor (Homo sapiens, UniProt P20309).
T1 construct: purchased Perkin Elmer
Nature of the assay: M3 Receptor radioligand binding assay. Particulars: for Ki: calculated from IC50 by Cheng and Prusoff equation. The protocol:
M3 Receptor Radioligand Binding Assay:
The assay is carried out in 96-well polypropylene plates in a volume of 250 μl. […] The final assay concentration of DMSO is 0.5% (v/v). The plates are sealed and incubated for 2 h at room temperature on an orbital shaker (slow speed). Membranes are harvested onto 96-well unifilter GF/C filter plates pre-treated with 0.5% polyethyleneimine (v/v), using a filter manifold, washed four times with 200 μl of assay buffer. The plates are dried before addition of 50 μl of microscint-0, sealed then read in a Trilux Microbeta scintillation counter. IC50 values are determined from competition curves using a non-linear curve fitting program. Ki values are calculated from IC50 values by the Cheng and Prusoff equation.

Another assay concerns the target Human recombinant PDE4B2 (Homo sapiens, UniProt Q07343). Nature of the assay: PDE4B2 HTRF assay. The assay is classed as biochemical. The protocol:
PDE4B2 activity is detected using the LANCE Ultra cAMP homogeneous time resolved fluorescence resonance energy transfer (TR-FRET) assay from Perkin Elmer. The assay is based on the competition between the europium (Eu) chelate-labeled cAMP tracer and sample cAMP for binding sites on cAMP-specific monoclonal antibodies (mAb) labelled with the ULight™ dye. The assay is carried out in 384-well low volume plates in a volume of 10 μl. Human recombinant PDE4B2 (80 pM) is incubated for 2 h with 3 nM cAMP in buffer containing 1×HBSS, 5 mM HEPES, 3 mM MgCl2, 0.1% BSA, pH 7.4 with or without test compounds. The enzymatic reactions are efficiently stopped by the addition of 500 μM IBMX present in the combined Stop/Detection buffer containing europium (Eu) chelate-labeled cAMP tracer and cAMP-specific monoclonal antibodies (mAb) labelled with the ULight™ dye. […] IC50 values are determined from competition curves using a non-linear curve fitting program.

The test system of assay [1] is Cch-evoked bronchoconstriction. Nature of the assay: Bronchospasm, percentage of inhibition (Cch-induced bronchoconstriction in rats). The assay is classed as in vivo, rat. Particulars: for inhibition at 16 h: 16 h after intratracheal administration of the sub-maximal inhibition dose; for sub-maximal inhibition Dose [inhibition at 1 h]: dose producing about 80% inhibition of the bronchospasm after 1 h, intratracheal. Here is the method:
Protocol of Bronchospasm-Percentage of Inhibition Animals Male CD Sprague Dawley rats (220-250 g) were purchased from Charles River Laboratories Italy (Calco, Lecco). Prior to use animals were acclimated for at least 5 days to the local vivarium conditions (room temperature: 20-24° C.; relative humidity: 40-70%), having free access to standard rat chow and softened tap water. All the procedures were performed in animal operating rooms according to ethical guidelines for the conduct of animal research (D. L.vo 116/92). […] Animals were anaesthetized with Urethane (1.2 g/kg, i.p.) and a laryngoscope was moved forward into the mouth to visualize the trachea and guide the insertion of the tip of a custom made small diameter cannula directly into the trachea and located 1-2 mm above the bifurcation. […] The target concentration was obtained by dilution of the DMSO stock in saline. Test compounds were instilled locally into the trachea in a volume of 125 μl. Experimental Procedure In order to assess the residual inhibitory activity of test compounds at 1 to 16 hours after their administration, rats were surgically prepared. In order to assess the Cch-induced bronchoconstriction in rats, the infusion of physiological solution was stopped and the bronchospastic agent injected into the jugular vein using the same cannula. Soon after washing the cannula with saline to ensure the complete administration of the bronchoconstrictor agent, the saline infusion was started again. Body temperature was kept constant at 37° C. by a heated blanket. The trachea was cannulated and the lungs were ventilated artificially with a small animal constant volume ventilator (rodent ventilator mod. 7025, Ugo Basile, Comerio, Varese, Italy) at a frequency of 80 strokes/min and at a tidal volume of 2.5 ml/kg. To avoid spontaneous breathing, the animals were injected intravenously (i.v.) with pancuronium bromide (2 mg/kg). Bronchoconstriction was induced by the i.v. injection of Cch 50 μg/kg. In control experiments, repeated injections of this dose produced reproducible short-lasting (1-2 min duration) bronchospasms. Bronchoconstriction, quantified as a reduction of tidal volume, was evaluated according to the method described by Konzett & Roessler in Konzett H. and Roessler R. (1940). Versuchanornungzu untersuchungen […]. Arch. Exp. Path. Pharmak.; 195:71-74, which is incorporated herein by reference in its entirety. Systemic blood pressure and changes in airway resistance were monitored with a digital pressure transducer connected to a bridge amplifier (PowerLab; Ugo Basile, Italy) and recorded using Chart 5 software (Ugo Basile, Italy). […] The effect of test compounds was expressed as % inhibition of Cch-evoked bronchoconstriction in time-matched, vehicle-treated, animals (controls).

The test system of another assay is COPD patients. Particulars: cited from earlier work.
Setting [2] is: patients with severe disease, frequent exacerbations and mucus hypersecretion.

Chain of Human recombinant PDE4B2 (Q07343 1-564 isoform Q07343-2): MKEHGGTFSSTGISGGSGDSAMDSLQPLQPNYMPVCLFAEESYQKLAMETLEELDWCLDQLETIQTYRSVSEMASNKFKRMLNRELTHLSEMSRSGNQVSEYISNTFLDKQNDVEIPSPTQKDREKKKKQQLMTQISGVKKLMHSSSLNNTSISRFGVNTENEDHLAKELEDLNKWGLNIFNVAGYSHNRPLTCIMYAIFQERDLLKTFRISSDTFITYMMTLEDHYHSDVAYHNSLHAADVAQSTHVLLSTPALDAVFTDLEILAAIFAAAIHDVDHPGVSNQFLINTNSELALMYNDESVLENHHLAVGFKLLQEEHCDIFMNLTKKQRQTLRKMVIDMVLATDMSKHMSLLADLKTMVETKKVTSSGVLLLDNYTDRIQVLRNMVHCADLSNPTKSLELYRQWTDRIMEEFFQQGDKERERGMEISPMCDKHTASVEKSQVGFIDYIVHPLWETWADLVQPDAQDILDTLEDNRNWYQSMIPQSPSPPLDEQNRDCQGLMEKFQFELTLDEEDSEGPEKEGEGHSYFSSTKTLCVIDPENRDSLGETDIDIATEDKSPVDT
T1 sequence (P20309 whole entry): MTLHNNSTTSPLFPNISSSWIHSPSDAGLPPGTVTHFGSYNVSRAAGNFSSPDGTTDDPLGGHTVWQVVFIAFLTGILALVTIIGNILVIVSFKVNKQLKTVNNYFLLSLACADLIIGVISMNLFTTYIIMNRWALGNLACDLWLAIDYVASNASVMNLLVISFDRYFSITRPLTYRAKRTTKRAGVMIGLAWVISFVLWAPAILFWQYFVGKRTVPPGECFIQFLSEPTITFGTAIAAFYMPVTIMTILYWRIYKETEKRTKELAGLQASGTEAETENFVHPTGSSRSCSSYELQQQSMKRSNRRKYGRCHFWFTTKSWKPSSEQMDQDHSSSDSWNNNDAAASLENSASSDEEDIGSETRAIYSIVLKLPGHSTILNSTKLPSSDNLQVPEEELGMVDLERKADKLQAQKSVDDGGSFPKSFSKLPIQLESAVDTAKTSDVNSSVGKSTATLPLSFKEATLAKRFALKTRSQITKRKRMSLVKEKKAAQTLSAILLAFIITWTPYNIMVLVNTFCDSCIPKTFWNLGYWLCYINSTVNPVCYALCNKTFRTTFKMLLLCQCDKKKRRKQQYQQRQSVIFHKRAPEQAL

For `COc1ccc([C@H](Cc2c(Cl)c[n+]([O-])cc2Cl)OC(=O)c2cccc(CNC(C(=O)OCC3CCN(C)CC3)c3ccccc3)c2)cc1OC` (stereo partly drawn) [Example 5, [(1S)-2-(3,5-dichloro-1-oxido-pyridin-1-ium-4-yl)-1-(3,4-dimethoxyphenyl)ethyl] 3-[[[2-[(1-methyl-4-piperidyl)-methoxy]-2-oxo-1-phenyl-ethyl]amino]methyl]benzoate], the IC50 at Human M3 receptor (read-out: M3 IC50 activity) and on Human recombinant PDE4B2 was 1 to 10 nM in each case.
As to `COc1ccc([C@H](Cc2c(Cl)c[n+]([O-])cc2Cl)OC(=O)c2ccc(CNC(C(=O)OCC3CCN(C)CC3)c3ccccc3)cc2)cc1OC` (single isomer, unassigned) [Example 2], the IC50 at Human M3 receptor (read-out: M3 IC50 activity) and at Human recombinant PDE4B2 was 1 to 10 nM in each case.
For the compound `COc1ccc([C@H](Cc2c(Cl)c[n+]([O-])cc2Cl)OC(=O)c2ccc(CNC(C(=O)OCC3CCN(C)CC3)c3ccccc3)cc2)cc1OC` (single isomer, unassigned) [Example 7], the Ki at Human M3 receptor was 0.45 nM. For the same compound, the IC50 at Human M3 receptor (read-out: M3 IC50) is 0.9 nM; on Human M3 receptor (read-out: M3 IC50 activity), less than 1 nM; at Human recombinant PDE4B2, 1 to 10 nM. The “inhibition at 16 h” value in assay [1] was more than 90%. The “sub-maximal inhibition Dose [inhibition at 1 h]” value in assay [1] amounted to 30 nmol/kg.
For the compound `O=C(Nc1c(Cl)cncc1Cl)c1ccc(OC(F)F)c(OCC2CC2)c1` [roflumilast], the “reduction of numbers of neutrophils in sputum” value in the assay with COPD patients (COPD patients, oral, over four weeks) is reported as 36%. In addition, in the assay on COPD patients (setting [2]), the “improvement of FEV 1” value was “approximately 50 mL” and the reduction of exacerbation entry is given as “about 15%”.
In the case of `COc1ccc([C@H](Cc2c(Cl)c[n+]([O-])cc2Cl)OC(=O)c2ccc(CNC(C(=O)OC3CCN(C)CC3)c3ccccc3)cc2)cc1OC` (single isomer, unassigned) [Example 7C, reference compound], at Human M3 receptor, the Ki is 0.09 nM. Also, the IC50 at Human M3 receptor (read-out: M3 IC50) turned out to be 0.17 nM. In addition, in assay [1], the “inhibition at 16 h” value is less than 10% and the “sub-maximal inhibition Dose [inhibition at 1 h]” value is on record as 3 nmol/kg.
Turning to `COc1ccc([C@H](Cc2c(Cl)c[n+]([O-])cc2Cl)OC(=O)c2cccc(CNC(C(=O)OCC3CCN(C)CC3)c3ccccc3)c2)cc1OC` (mixture of isomers) [Example 1, [(1S)-2-(3,5-dichloro-1-oxido-pyridin-1-ium-4-yl)-1-(3,4-dimethoxyphenyl)ethyl] 3-[[[2-[(1-methyl-4-piperidyl)methoxy]-2-oxo-1-phenyl-ethyl]amino]methyl]benzoate], the IC50 on Human M3 receptor (read-out: M3 IC50 activity) was 1 to 10 nM; on Human recombinant PDE4B2, less than 1 nM.
Regarding `COc1ccc([C@H](Cc2c(Cl)c[n+]([O-])cc2Cl)OC(=O)c2ccc(CNC(C(=O)OCC3CCN(C)CC3)c3cccc(O)c3)cc2)cc1OC` (stereo partly drawn) [Example 11, [(1S)-2-(3,5-dichloro-1-oxido-pyridin-1-ium-4-yl)-1-(3,4-dimethoxyphenyl)ethyl] 4-[[[1-(3-hydroxyphenyl)-2-[(1-methyl-4-piperidyl)-methoxy]-2-oxo-ethyl]amino]methyl]benzoate], the IC50 at Human M3 receptor (read-out: M3 IC50 activity) and at Human recombinant PDE4B2 was 1 to 10 nM each time.

These data come from patent US9597323B2, “Aminoester derivatives” (CHIESI FARMACEUTICI S.p.A., priority 2015, dated 2017).
